What was measured:
[1] = system: hES cells (embryoid bodies)
Experimental: In this experiment, hES cells were maintained on primary mouse embryonic fibroblasts in serum-free medium according to standard methods.
The EBs were fed every other day.
Various analogs of butyrate were also tested at 5 mM.

[2] = system: hES derived embryoid bodies; test: Marker analysis by immunocytochemistry, PAS glycogen stain and BrdU labelling; format: cell-based, human; details: 20% FBS and 5 mM sodium n-butyrate
Experimental: The morphology of the differentiated cells was remarkably uniform, showing a large polygonal surface and binucleated center characteristic of mature hepatocytes.
On the sixth day after plating in the differentiation agent, the cells were analyzed for expression of markers by RT-PCR and immunocytochemistry. Glycogen content in these cells was determined using periodic acid Schiff stain. The number of cells in S phase of cell cycle was determined by incubating the cells with 10 μM BrdU on day 5 after plating, and subsequently staining with anti-BrdU antibody 24 hours later.

SMILES | toxicity to cells ([1]; at 2.5-100 μM) | hepatocyte differentiation ([1]; at 10-50 nM) | hepatocyte differentiation and selection against other cell types ([1]; at 75-100 nM) | cell survival one day after plating ([1]; EBs plated in 20% FBS and 5 mM sodium butyrate) | % positive cells, BrdU staining ([2]; 10 μM BrdU on day 5, stained 24 hours later) [%] | % positive cells, Glycogen staining ([2]; periodic acid Schiff stain) [%] | % positive cells, Albumin ([2]; sixth day after plating) [%] | % positive cells, CK8 ([2]; sixth day after plating) [%] | % positive cells, CK18 ([2]; sixth day after plating) [%] | % positive cells, CK19 ([2]; sixth day after plating) [%] | % positive cells, Desmin ([2]; sixth day after plating) [%] | % positive cells, α1-antitrypsin ([2]; sixth day after plating) [%] | % positive cells, α-fetoprotein ([2]; sixth day after plating) [%]
CC(/C=C/C(=O)NO)=C\[C@@H](C)C(=O)c1ccc(N(C)C)cc1 [Trichostatin A] | toxic | ineffective | appeared both to induce hepatocyte differentiation, and to select against survival of other cell types |  |  |  |  |  |  |  |  |  | 
CCCC(=O)[O-].[Na+] [sodium n-butyrate] |  |  |  | large proportion of apparently dead cells | 16 | 60 | 55 | 100 | 100 | 100 | 0 | 90 | 0

Source: patent publication US9587223B2, “Protocols for making hepatocytes from embryonic stem cells” (Asterias Biotherapeutics, Inc., priority 2000, dated 2017)
